We go through 23 molecules from ChEMBL document CHEMBL5291721, “A preclinical secondary pharmacology resource illuminates target-adverse drug reaction associations of marketed drugs” (Nat Commun, 2023).

Test [1] has as its target Gamma-aminobutyric acid receptor subunit alpha-1/alpha-2/beta-2/gamma-2 (Homo sapiens, UniProt P14867+P18507+P47869+P47870). Type of test: functional, cell-based.
Test [2] addresses T1, Progesterone receptor (Homo sapiens, UniProt P06401).
T1 sequence (P06401 whole entry): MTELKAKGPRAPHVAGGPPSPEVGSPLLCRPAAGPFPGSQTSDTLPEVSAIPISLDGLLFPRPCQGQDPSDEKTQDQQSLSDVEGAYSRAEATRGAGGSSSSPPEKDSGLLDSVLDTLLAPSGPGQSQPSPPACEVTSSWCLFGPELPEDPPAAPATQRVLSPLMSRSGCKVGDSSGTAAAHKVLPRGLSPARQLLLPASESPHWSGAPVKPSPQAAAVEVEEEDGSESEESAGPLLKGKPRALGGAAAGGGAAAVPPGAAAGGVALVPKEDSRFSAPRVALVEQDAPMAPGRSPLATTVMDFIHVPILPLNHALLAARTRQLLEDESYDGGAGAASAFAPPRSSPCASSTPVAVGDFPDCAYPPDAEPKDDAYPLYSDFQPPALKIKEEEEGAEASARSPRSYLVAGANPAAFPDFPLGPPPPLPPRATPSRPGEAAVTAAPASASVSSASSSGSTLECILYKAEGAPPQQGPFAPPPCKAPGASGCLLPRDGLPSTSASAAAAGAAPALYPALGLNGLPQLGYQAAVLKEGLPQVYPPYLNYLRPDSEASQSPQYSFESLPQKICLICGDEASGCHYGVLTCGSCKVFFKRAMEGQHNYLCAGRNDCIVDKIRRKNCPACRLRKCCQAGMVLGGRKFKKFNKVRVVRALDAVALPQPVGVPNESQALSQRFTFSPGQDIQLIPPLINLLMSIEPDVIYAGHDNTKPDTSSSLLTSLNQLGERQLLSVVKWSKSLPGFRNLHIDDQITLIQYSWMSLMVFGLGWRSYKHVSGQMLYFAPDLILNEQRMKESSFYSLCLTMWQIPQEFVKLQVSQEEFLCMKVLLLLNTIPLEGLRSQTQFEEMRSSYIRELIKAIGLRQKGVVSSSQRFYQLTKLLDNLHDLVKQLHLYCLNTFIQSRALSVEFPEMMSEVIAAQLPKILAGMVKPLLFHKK
Type of test: functional.

The target in the next test is Melanocortin receptor 4 (Homo sapiens, UniProt P32245).
Chain of Melanocortin receptor 4 (P32245 whole entry): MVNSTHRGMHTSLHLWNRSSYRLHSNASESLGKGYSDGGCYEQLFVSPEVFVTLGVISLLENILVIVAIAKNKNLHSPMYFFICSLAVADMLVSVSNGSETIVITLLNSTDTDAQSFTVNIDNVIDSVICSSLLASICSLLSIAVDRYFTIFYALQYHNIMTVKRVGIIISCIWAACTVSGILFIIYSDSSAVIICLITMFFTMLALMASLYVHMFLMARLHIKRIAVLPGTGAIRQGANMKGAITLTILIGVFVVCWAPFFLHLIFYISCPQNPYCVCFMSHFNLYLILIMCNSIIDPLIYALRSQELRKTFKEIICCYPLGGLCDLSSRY
Test [3] addresses 5-hydroxytryptamine receptor 2A (Homo sapiens, UniProt P28223).
For the next test, the target named is Histamine H1 receptor (Homo sapiens, UniProt P35367). Type of test: functional, cell-based.
Chain of Histamine H1 receptor (P35367 whole entry): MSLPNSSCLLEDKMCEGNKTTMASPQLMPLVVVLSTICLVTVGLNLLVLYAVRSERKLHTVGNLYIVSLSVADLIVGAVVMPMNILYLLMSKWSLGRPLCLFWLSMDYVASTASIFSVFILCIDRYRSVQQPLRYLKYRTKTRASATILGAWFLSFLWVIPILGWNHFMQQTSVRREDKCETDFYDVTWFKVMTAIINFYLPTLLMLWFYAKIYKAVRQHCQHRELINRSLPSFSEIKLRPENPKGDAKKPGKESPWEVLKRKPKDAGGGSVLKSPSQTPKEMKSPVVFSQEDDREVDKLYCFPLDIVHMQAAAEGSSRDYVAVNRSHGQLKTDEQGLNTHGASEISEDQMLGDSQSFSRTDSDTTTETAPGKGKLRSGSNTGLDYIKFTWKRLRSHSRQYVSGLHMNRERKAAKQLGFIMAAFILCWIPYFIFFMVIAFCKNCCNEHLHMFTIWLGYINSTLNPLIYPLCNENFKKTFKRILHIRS
Test [4] concerns the target T1, Progesterone receptor.
Test [5] deals with T2, Muscarinic acetylcholine receptor M2 (Homo sapiens, UniProt P08172).
T2 sequence (P08172 whole entry): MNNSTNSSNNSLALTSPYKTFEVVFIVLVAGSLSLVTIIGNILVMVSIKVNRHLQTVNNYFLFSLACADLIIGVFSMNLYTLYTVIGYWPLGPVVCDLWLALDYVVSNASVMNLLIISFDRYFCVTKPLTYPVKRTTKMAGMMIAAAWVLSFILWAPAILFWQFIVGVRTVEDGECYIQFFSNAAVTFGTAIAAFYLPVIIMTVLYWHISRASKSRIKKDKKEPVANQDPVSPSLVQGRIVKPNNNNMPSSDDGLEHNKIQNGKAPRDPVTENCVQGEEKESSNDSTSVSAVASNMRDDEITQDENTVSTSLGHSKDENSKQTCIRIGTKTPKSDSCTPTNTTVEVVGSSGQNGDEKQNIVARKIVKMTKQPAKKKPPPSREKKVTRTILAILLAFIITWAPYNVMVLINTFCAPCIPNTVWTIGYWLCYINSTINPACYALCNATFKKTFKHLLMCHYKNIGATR

Test [6] deals with T3, Alpha-1A adrenergic receptor (Homo sapiens, UniProt P35348).
T3 sequence (P35348 whole entry): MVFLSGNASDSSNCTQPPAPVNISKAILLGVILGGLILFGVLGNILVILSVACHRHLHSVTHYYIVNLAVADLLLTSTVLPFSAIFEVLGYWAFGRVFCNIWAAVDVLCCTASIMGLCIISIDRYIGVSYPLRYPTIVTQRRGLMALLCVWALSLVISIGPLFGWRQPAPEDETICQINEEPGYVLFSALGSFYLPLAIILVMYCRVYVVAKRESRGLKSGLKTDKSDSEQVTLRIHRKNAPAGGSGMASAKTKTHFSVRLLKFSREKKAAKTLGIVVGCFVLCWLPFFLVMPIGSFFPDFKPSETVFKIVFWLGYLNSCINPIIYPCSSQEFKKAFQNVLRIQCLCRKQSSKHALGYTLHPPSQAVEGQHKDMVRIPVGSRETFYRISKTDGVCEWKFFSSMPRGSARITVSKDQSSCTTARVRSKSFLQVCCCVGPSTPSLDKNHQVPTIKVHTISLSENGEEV

The target in test [7] is T4, Type-2 angiotensin II receptor (Homo sapiens, UniProt P50052).
T4 sequence (P50052 whole entry): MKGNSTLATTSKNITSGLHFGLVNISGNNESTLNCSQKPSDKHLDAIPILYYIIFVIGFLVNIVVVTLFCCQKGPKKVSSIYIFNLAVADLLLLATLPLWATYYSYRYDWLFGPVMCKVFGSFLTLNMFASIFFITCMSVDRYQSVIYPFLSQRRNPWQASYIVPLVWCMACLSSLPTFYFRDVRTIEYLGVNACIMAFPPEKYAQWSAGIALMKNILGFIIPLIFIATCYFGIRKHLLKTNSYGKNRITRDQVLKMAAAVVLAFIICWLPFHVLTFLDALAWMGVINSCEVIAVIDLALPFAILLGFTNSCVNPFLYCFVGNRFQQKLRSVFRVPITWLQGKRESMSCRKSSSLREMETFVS
Type of test: functional.
Also: assay procedure not described here.

Chain of 5-hydroxytryptamine receptor 2A (P28223 whole entry): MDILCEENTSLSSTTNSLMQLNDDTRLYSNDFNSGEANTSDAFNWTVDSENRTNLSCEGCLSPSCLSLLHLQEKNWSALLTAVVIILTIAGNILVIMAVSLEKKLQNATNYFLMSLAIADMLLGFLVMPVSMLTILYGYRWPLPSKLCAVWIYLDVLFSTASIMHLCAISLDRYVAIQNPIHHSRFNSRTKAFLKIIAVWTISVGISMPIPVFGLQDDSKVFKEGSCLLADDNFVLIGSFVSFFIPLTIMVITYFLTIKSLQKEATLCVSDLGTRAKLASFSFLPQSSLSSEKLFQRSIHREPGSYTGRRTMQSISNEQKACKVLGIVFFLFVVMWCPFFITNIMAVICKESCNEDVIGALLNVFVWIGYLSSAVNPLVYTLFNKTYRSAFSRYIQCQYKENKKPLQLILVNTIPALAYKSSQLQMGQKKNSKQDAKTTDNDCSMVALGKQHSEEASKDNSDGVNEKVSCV
Chain of Gamma-aminobutyric acid receptor subunit alpha-1/alpha-2/beta-2/gamma-2 (P14867 whole entry): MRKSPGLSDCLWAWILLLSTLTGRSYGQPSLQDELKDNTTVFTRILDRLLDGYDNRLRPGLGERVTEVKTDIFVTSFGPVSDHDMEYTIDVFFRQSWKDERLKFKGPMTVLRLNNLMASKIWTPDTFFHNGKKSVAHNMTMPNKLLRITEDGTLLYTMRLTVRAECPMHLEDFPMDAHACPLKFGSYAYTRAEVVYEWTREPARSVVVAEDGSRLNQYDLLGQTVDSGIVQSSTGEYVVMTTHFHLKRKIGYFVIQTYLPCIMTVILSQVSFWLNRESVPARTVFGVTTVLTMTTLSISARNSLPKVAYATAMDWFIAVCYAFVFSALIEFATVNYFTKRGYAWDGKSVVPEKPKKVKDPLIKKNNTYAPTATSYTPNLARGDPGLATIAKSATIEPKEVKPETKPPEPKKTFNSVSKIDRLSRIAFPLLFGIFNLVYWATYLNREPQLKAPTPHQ
Chain of Gamma-aminobutyric acid receptor subunit alpha-1/alpha-2/beta-2/gamma-2 (P47870 whole entry): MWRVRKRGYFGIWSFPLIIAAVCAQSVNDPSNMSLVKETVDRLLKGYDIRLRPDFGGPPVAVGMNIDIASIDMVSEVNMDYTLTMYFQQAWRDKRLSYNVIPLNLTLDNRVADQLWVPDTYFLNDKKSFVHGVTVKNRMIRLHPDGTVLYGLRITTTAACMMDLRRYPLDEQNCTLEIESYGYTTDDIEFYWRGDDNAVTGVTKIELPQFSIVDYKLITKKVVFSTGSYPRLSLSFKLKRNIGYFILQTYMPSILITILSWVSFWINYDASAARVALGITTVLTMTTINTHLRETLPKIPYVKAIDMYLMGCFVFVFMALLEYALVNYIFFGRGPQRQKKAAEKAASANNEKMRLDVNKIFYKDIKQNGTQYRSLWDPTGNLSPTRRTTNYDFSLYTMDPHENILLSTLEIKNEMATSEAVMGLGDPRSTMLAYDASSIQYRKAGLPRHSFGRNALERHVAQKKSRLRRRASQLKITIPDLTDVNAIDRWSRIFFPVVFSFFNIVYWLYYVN
Chain of Gamma-aminobutyric acid receptor subunit alpha-1/alpha-2/beta-2/gamma-2 (P18507 whole entry): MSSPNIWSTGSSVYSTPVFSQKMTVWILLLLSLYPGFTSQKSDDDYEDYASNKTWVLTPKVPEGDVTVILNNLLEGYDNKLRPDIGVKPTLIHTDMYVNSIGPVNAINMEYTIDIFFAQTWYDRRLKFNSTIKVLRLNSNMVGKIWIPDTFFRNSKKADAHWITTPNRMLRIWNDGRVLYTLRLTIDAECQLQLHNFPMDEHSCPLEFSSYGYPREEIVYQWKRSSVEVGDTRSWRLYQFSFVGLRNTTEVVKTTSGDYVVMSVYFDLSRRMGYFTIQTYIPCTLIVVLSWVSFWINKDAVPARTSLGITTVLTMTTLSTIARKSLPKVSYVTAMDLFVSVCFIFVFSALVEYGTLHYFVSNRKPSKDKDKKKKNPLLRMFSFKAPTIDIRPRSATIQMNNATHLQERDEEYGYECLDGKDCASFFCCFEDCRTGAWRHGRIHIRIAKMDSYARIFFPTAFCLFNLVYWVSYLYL
Chain of Gamma-aminobutyric acid receptor subunit alpha-1/alpha-2/beta-2/gamma-2 (P47869 whole entry): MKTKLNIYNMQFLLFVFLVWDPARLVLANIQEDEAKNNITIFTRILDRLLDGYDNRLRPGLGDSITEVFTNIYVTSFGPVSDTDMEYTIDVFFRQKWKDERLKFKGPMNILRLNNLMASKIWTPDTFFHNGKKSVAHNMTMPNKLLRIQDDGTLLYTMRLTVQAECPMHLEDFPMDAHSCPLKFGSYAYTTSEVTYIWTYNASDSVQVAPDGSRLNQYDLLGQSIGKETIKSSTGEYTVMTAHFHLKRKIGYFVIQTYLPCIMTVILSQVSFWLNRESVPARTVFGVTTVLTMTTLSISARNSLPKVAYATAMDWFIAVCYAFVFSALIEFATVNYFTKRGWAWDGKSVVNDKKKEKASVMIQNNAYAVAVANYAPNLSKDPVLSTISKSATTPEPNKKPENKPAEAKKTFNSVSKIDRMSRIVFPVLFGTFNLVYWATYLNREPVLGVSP

Usually AC50 stands for the concentration giving half of the maximal activity seen. As for `CC[C@@H](C(N)=O)N1CCCC1=O`, the concentration at half-maximal activity (AC50) (in test [1]; on Progesterone receptor [2]) was more than 30 µM throughout.

On Progesterone receptor [2], `CCC(CC)(CC(=O)Nc1cccc(/C=C/c2nc(C3CCC3)cs2)c1)C(=O)O` displayed a half-maximal activity concentration (AC50) of more than 30 µM.

In turn, `CCCC1O[C@@H]2C[C@H]3[C@@H]4CCC5=CC(=O)C=C[C@]5(C)[C@H]4[C@@H](O)C[C@]3(C)[C@]2(C(=O)CO)O1` (some centres not stated) [BUDESONIDE] registered a concentration at half-maximal activity (AC50) on Melanocortin receptor 4 of more than 10 µM.

As for `C=CCN1C[C@H](C(=O)N(CCCN(C)C)C(=O)NCC)C[C@@H]2c3cccc4[nH]cc(c34)C[C@H]21` [CABERGOLINE], the AC50 in [1] was more than 30 µM; at Progesterone receptor [2], more than 10 µM; in [3], 0.0077 µM; at Melanocortin receptor 4 it was more than 10 µM.

As to `NC1CCN(c2c(F)cc3c(=O)c(C(=O)O)cn(C4CC4)c3c2Cl)C1` (configuration not stated) [CLINAFLOXACIN], in [1], the AC50 was more than 300 µM.

As for `CN1CCN(C2=Nc3ccccc3Sc3ccc(Cl)cc32)CC1` [CLOTHIAPINE], the AC50 (in [1]; at Histamine H1 receptor) was more than 30 µM each time.

For the molecule `CN(C)CCC=C1c2ccccc2C=Cc2ccccc21` [CYCLOBENZAPRINE], the AC50 on Progesterone receptor [4] and on Melanocortin receptor 4 was more than 30 µM throughout.

Regarding `CCOc1ccc(Cc2cc([C@@H]3O[C@H](CO)[C@@H](O)[C@H](O)[C@H]3O)ccc2Cl)cc1` [DAPAGLIFLOZIN], the AC50 was more than 30 µM at Progesterone receptor [4], more than 10 µM in test [5] and more than 30 µM at Melanocortin receptor 4.

With `CN(C)CC/C=C1\c2ccccc2CSc2ccccc21` [DOTHIEPIN], on Progesterone receptor [2], the AC50 was more than 30 µM.

For `CC[C@H]1CN2CCc3cc(OC)c(OC)cc3[C@@H]2C[C@@H]1C[C@H]1NCCc2cc(OC)c(OC)cc21` [EMETINE], the half-maximal activity concentration (AC50) (in [1]; on Progesterone receptor [2]) was more than 30 µM in each case.

Take `COc1ccc(C(=O)Nc2ccccc2CCC2CCCCN2C)cc1` (configuration not stated) [ENCAINIDE]: the AC50 was more than 30 µM at Histamine H1 receptor; more than 30 µM on Progesterone receptor [4]; more than 10 µM in test [5]; 0.103 µM in test [3]; more than 10 µM in test [6]; more than 30 µM on Melanocortin receptor 4.

`CCOC(=O)/C=C1\SC(N2CCCCC2)C(=O)N1C` (configuration not stated) [ETOZOLIN] showed an AC50 in test [7] of more than 100 µM.

On to `O=[N+]([O-])O[C@@H]1CO[C@H]2[C@@H]1OC[C@@H]2O` [ISOSORBIDE MONONITRATE], for which the half-maximal activity concentration (AC50) on Progesterone receptor [4] was more than 30 µM; in test [5], more than 10 µM; in [3] it was more than 10 µM; in test [6], more than 10 µM; on Melanocortin receptor 4 it was more than 30 µM.

Take `Cc1cc(C)c(NC(=O)CN(CC(=O)O)CC(=O)O)c(C)c1Br` [MEBROFENIN]: in test [1], the concentration at half-maximal activity (AC50) was more than 30 µM.

At Progesterone receptor [2], `COc1ccccc1N1CCN(CC(O)COc2cccc3ccccc23)CC1` (configuration not stated) [NAFTOPIDIL] came in with a concentration at half-maximal activity (AC50) of more than 30 µM.

For the molecule `COc1cc2nc(N3CCN(C(=O)c4ccco4)CC3)nc(N)c2cc1OC` [PRAZOSIN], the AC50 is more than 30 µM at Progesterone receptor [4], 13.2 µM in test [5], more than 100 µM in test [7] and more than 30 µM on Melanocortin receptor 4.

For `O=[N+]([O-])c1cn2c(n1)OC[C@@H](OCc1ccc(OC(F)(F)F)cc1)C2` [PRETOMANID], the AC50 in test [3] is more than 10 µM; in test [6] it was more than 10 µM; at Melanocortin receptor 4 it was more than 30 µM.

As for `Cc1oc(=O)oc1CN1CCN(c2cc3c(cc2F)c(=O)c(C(=O)O)c2n3C(C)S2)CC1` (configuration not stated) [PRULIFLOXACIN], the AC50 in test [1] is more than 30 µM.

The molecule `CCN1CCCC1CNC(=O)c1cc(S(N)(=O)=O)ccc1OC` (configuration not stated) [SULPIRIDE] came in with a concentration at half-maximal activity (AC50) in [7] of more than 100 µM.

Consider `CCCCCNC(=N)N/N=C/c1c[nH]c2ccc(OC)cc12` [TEGASEROD], for which the AC50 at Progesterone receptor [2] is 21 µM; on Progesterone receptor [4], more than 30 µM; in [3], 0.174 µM; in test [6], 0.267 µM; at Melanocortin receptor 4 it was 5.34 µM.

Regarding `COC1=C(OC)C(=O)C(C/C=C(\C)CC/C=C(\C)CC/C=C(\C)CC/C=C(\C)CC/C=C(\C)CC/C=C(\C)CC/C=C(\C)CC/C=C(\C)CC/C=C(\C)CCC=C(C)C)=C(C)C1=O` [UBIDECARENONE], the AC50 in test [1] is more than 30 µM.

As for `CCOc1ccccc1OCC1CNCCO1` (configuration not stated) [VILOXAZINE], the AC50 is more than 30 µM on Histamine H1 receptor; more than 30 µM at Progesterone receptor [4]; more than 10 µM in test [5]; more than 100 µM in [7]; more than 10 µM in test [6]; more than 30 µM on Melanocortin receptor 4.

Regarding `CN(C)CCc1c[nH]c2ccc(C[C@H]3COC(=O)N3)cc12` [ZOLMITRIPTAN], the AC50 (in test [1]; at Progesterone receptor [2]; on Histamine H1 receptor) was more than 30 µM each time.
